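Dose response: 5 concentrations. Exposure: 48 h. Format: 96-well plates. Endpoint: linear interpolation; highest concentration if not reached. TGI marks complete inhibition of growth.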

What all share (test): DTP human tumour cell line panel, 48 h
The subject of test [1] is A498 renal.
The subject of test [2] is HCT-116 colon.
Test [3] relates to K-562 leukemia.
For test [4], the system named is MALME-3M melanoma.
Test [5] relates to MOLT-4 leukemia.
In test [6] the test system is RPMI-8226 leukemia.
For test [7], the system named is SF-295 CNS.
Test [8] relates to UACC-62 melanoma.

Broadly, the TGI is the concentration at which net growth stops. With `COc1ccc2nc3cccc(C(=O)NCCN(C)C)c3nc2c1`, the TGI in test [1] worked out at 3.34 µM; in test [2], 2.6 µM; in test [3] it was 6.94 µM; in test [4] it was 2.69 µM; in test [5] it was 1.19 µM; in test [6], 27.6 µM. In test [7], this compound yielded a TGI above 22.8 µM.
As to `CC1=C(C(=O)Nc2ccccc2)C(c2ccc(C(C)C)cc2)C(C(=O)Nc2ccccc2)=C(C)N1`, the TGI in test [1] is above 72.3 µM; in test [2], 27 µM; in test [3], 54.9 µM; in test [4], 30.2 µM; in test [5] it was 57.5 µM; in test [6], 29.8 µM. In addition, the values for the TGI in test [7] and in test [8] were above 100 µM and 35 µM, respectively.
Take `CC(=O)O[C@H]1C=CC23OC(=O)[C@]1(C)[C@H]2[C@H](C(=O)O)C12CC(=O)[C@@](CO)(CC[C@H]13)C2`: the TGI in test [2], in test [3], in test [5], in test [6], in test [7] and in test [8] was above 100 µM each time.
Consider `C[n+]1c(N)n(C(=O)OCc2ccccc2)c(=O)c2c1ncn2C(=O)OCc1ccccc1`, for which the TGI in test [1], in test [2], in test [3], in test [4], in test [5] and in test [6] was above 100 µM in each case. Further, the TGI in test [7] and in test [8] was above 100 µM throughout.
As for `COC(=O)Cc1nc2ccccc2o1`, the TGI in test [1], in test [2], in test [3], in test [4], in test [5] and in test [6] was above 100 µM each time. For the same compound, the TGI in test [7] was above 100 µM; in test [8], 49.3 µM.
As to `COc1ccc(C(=O)O/N=C2/CCC/C2=C\c2ccccc2)cc1`, the TGI in test [1], in test [2], in test [3], in test [4], in test [5] and in test [6] was above 100 µM in each case. The TGI in test [7] and in test [8] was above 100 µM throughout.
For `COc1ccc(C2=NOP(c3ccccc3)(c3ccccc3)(c3ccccc3)C2)cc1`, the TGI in test [1] is 89.7 µM; in test [2] it was 21.4 µM; in test [3], 31.4 µM; in test [4], 50.9 µM; in test [5] it was 41.2 µM; in test [6], 33.5 µM. The TGI amounted to 61.2 µM in test [7] and 53.2 µM in test [8].
In the case of `Cn1cc(NC(=O)c2cc(NC(=O)CCCCCCC(=O)Nc3cc(C(=O)Nc4cc(C(=O)NCCC(=N)N)n(C)c4)n(C)c3)cn2C)cc1C(=O)NCCC(=N)N`, the TGI in test [1] is 5.28 µM; in test [2], 41.6 µM; in test [3], above 100 µM; in test [4] it was 12.1 µM; in test [7], above 100 µM; in test [8], 20.8 µM.
For the compound `Nc1c(-c2nc3ccccc3[nH]2)sc(=S)n1-c1ccc(Cl)cc1`, the TGI was 88.2 µM in test [1]; above 100 µM in test [3]; above 100 µM in test [4]; above 100 µM in test [5]; 90.2 µM in test [6]; 43.6 µM in test [7]. The TGI in test [8] stood at 48.4 µM.
In the case of `Nc1ccc(C(=O)N/C(=C\c2cccc([N+](=O)[O-])c2)c2nc3c4c(ccc3[nH]2)C(=O)c2ccccc2C4=O)cc1`, the TGI in test [1] is 57.7 µM; in test [2] it was above 100 µM; in test [3], above 100 µM; in test [4], above 100 µM; in test [5], above 100 µM; in test [6], above 100 µM. For the same compound, the TGI in test [7] and in test [8] was above 100 µM throughout.
For the compound `CC(C)(C)OC(=O)N1N=NC2C3OC(CC3=O)C21` (stereo not drawn), the TGI in test [1], in test [2], in test [3], in test [4], in test [5] and in test [6] was above 100 µM throughout. Also, the TGI in test [8] is above 100 µM.
With `O=C(/C(=C/c1ccccc1)c1ccccc1)N1c2ccccc2CC1c1c[nH]c2ccccc12` (stereo not drawn), the total growth inhibition concentration (TGI) was above 100 µM in test [1]; above 100 µM in test [2]; above 100 µM in test [3]; above 100 µM in test [4]; 49.7 µM in test [5]; above 100 µM in test [6]. Further, the TGI in test [7] and in test [8] was above 100 µM each time.
On to `COc1ccc2c(c1)OCCC1=C2SCC2(C)CCN=C12` (stereo not drawn), for which the TGI in test [2], in test [3], in test [5], in test [6], in test [7] and in test [8] was above 100 µM throughout.
`CN(C)CCNc1nc(-c2cccs2)cc(-c2cccs2)n1`: the TGI in test [1] worked out at 25.4 µM; in test [2] it was 23.4 µM; in test [3] it was 36.5 µM; in test [4] it was 30.9 µM; in test [5], 13.4 µM; in test [7] it was 28.2 µM. Further, the TGI in test [8] came to 37.4 µM.
As to `OCC(O)C(OC1OC(CO)C(O)C(O)C1O)c1nn(-c2ccccc2)c2nc3cc(Cl)ccc3nc12` (stereo not drawn), the TGI in test [1], in test [2], in test [3], in test [4], in test [5] and in test [6] was above 100 µM each time. The TGI in test [7] and in test [8] was above 100 µM each time.
Consider `NCP(=O)(O)OCC(=O)O`, for which the TGI in test [1], in test [2], in test [3], in test [4], in test [5] and in test [7] was above 100 µM each time. For the same compound, the TGI in test [8] is above 100 µM.
Regarding `N#C/C(=C\c1ccccc1Br)C(=O)c1ccccc1`, the TGI is above 100 µM in test [1]; above 66.8 µM in test [2]; above 42.6 µM in test [3]; above 100 µM in test [4]; 52.8 µM in test [5]; 51.6 µM in test [6]. Further, the TGI in test [7] is above 87.5 µM; in test [8], 87.5 µM.
Consider `Cc1ccc(NC(=O)CCC(=O)C(C#N)c2ccccc2)cc1C` (stereo not drawn), for which the TGI in test [1], in test [2], in test [3], in test [4], in test [5] and in test [6] was above 100 µM throughout. The TGI in test [7] and in test [8] was above 100 µM in each case.
As for `CC(=O)CC(=O)/C=C/c1cccs1`, the TGI in test [1], in test [2], in test [3], in test [4], in test [5] and in test [6] was above 100 µM in each case. Further, the TGI in test [7] and in test [8] was above 100 µM each time.
`CCOC(=O)NC(=O)c1c[nH]c(=O)[nH]c1=O`: the TGI in test [1], in test [2], in test [3], in test [4], in test [5] and in test [6] was above 100 µM in each case. The TGI in test [7] and in test [8] was above 100 µM each time.
Take `Nc1nc(N)c(-c2ccccc2)c(CCC(=O)Nc2ccc(Cl)cc2)n1`: the TGI in test [1], in test [2], in test [3], in test [4], in test [5] and in test [6] was above 100 µM in each case. Besides, the TGI in test [7] and in test [8] was above 100 µM in each case.
With `CCOC(=O)/N=c1/nc(N(C)C)ss1`, the TGI in test [1], in test [2], in test [3], in test [4], in test [5] and in test [6] was above 100 µM throughout. Also, the TGI in test [7] and in test [8] was above 100 µM each time.
Consider `NS(=O)(=O)c1ccc(NC(=O)COC(=O)c2cccc3c(=O)c4ccccc4[nH]c23)cc1`, for which the TGI is 51.8 µM in test [1]; above 74.9 µM in test [2]; above 100 µM in test [3]; 50.5 µM in test [4]; above 47.2 µM in test [5]; above 100 µM in test [6]. Moreover, the total growth inhibition concentration (TGI) in test [7] was found to be 52.6 µM; in test [8], 34.7 µM.
With `Cc1ccc(S(=O)OC23CC4CC(CC(C4)C2)C3)cc1` (stereo not drawn), the TGI in test [1], in test [2], in test [3], in test [4], in test [5] and in test [6] was above 100 µM throughout. Besides, the TGI in test [7] and in test [8] was above 100 µM each time.
With `CN(C)CC1CCCC/C1=N/OC(=O)c1ccc(Cl)c(Cl)c1` (stereo not drawn), the TGI in test [1], in test [2], in test [3], in test [4], in test [6] and in test [7] was above 100 µM each time. Moreover, the TGI in test [8] was above 100 µM.

(Values after PubChem BioAssay (NCI).)
